# Entries after “also recorded” stand apart in the source; their conditions may differ.
# What was measured:
# [1] = system: lipid peroxidation in HT-1080 cells; assay: C11-BODIPY lipid peroxidation flow cytometry assay; assay type: cell-based, human; details: HT-1080 cells, with and without fer-1
# [2] = target: T1, GPX4 (Homo sapiens, UniProt P36969); assay: GPX4 activity assay in cell lysates (NADPH-coupled); assay type: biochemical; design: endogenous in cells; host or cells: A-673 cell lysate
# T1 sequence (P36969 1-170 isoform P36969-2): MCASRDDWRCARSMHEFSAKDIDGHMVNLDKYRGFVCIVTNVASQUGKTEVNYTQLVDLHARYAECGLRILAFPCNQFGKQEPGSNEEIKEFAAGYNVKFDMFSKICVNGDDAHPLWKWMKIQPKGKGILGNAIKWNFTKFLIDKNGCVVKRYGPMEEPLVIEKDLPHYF
# Procedure, shortened: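 Native GPX4 in lysates of A-673 cells grown with 20 nM sodium selenite; lysate preincubated with compound 45 min at 37 °C in pH 8.0 buffer with 3 mM GSH, 0.5 mM NADPH and glutathione reductase. Reaction started with phosphatidylcholine hydroperoxide; NADPH consumption followed at 340 nm over 25 min; triplicates.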
# [3] = system: SU-DHL-6; assay: Cytotoxicity in DLBCL cells, SU-DHL-6; assay type: cell-based, human
# [4] = Kinetic aqueous solubility
# [5] = in vitro; assay type: in vitro ADME, human; details: human, microsomes
# Procedure: (§1) […]. The incubation timepoints measured were 0, 5, 10, 15, 30, and 45 minutes. All samples were prepared in duplicate and analyzed by LC-MS/MS.
# [6] = system: DTP cells derived from PC9; assay: Drug-tolerant persister cell model, DTP cells; details: for % Viability Persister: 48 hours
# [7] = in vitro; assay type: in vitro ADME, mouse; details: mouse, microsomes
# Procedure: as §1
smiles,measurement,setting,value
COc1ccc(-c2ccc3c(C(=O)NC(C)(C)COC(=O)CCl)nn(C)c3c2)cc1Cl [QW-446],"lipid peroxidation (C11-BODIPY), result in words",[1],induced fer-1 rescuable increases in lipid peroxidation
same,"GPX4 inhibitory activity, result in words",[2],greater GPX4 inhibitory activity than QW-314 at 5 μM
same,GPX4% inhibition at 2.5 μM,[2]; 2.5 μM,79.1 ± 4.4%
same,GPX4% inhibition at 5 μM,[2]; 5 μM,88.1 ± 2.7%
same,GPX4 inhibition rate,[2]; concentration not given,90%
same,IC50,"[2]; mean±SD, n=3 (FIG. 84E), read-out: IC50 in the in vitro GPX4 activity assay",490 nM
same,"ferroptosis induction / potency in SU-DHL-6 cells, result in words",[3],a potency that is similar to RSL3
same,aqueous solubility,[4],up to 1000 μM
same,Solubility,"[4]; 1% DMSO, Phosphate Buffered Saline pH 7.4, 1 hour, ambient, UV/Vis absorbance",22 µM
same,Solubility,"[4]; aqueous solubility, Table 9",>1000 µM
same,Microsome Stability t1/2 (min) human,[5],1.6 min
same,"selectivity for DTPs vs PC9 parental cells, result in words",[6],show DTP selectivity relative to PC9 parental cells; also recorded: selective and similar or stronger cytotoxicity to DTP cells
same,% Viability Persister,[6]; dose 0.5 μM,127.75%
same,% Viability Persister + 2 μM Fer-1,[6]; dose 0.5 μM,110.75%
same,% Viability Persister,[6]; dose 10.0 μM,26.50%
same,% Viability Persister + 2 μM Fer-1,[6]; dose 10.0 μM,107.50%
same,% Viability Persister,[6]; dose 20.0 μM,4.25%
same,% Viability Persister + 2 μM Fer-1,[6]; dose 20.0 μM,27.00%
same,Microsome Stability t1/2 (min) mouse,[7],1.2 min

# — US20250248979A1, “NOVEL GPX4 INHIBITORS AND USES THEREOF” (THE TRUSTEES OF COLUMBIA UNIVERSITY IN THE CITY OF NEW YORK, priority 2022, published 2025)
